These results are taken from patent US4845244A, “Production of hydroxyphenylpropionic acid ester having a novel crystalline structure” (Sumitomo Chemical Company, Limited, priority 1985, dated 1989).

Data set [1] in a line: Solubility in water-insoluble recrystallization solvents (statement). It is filed as physicochemical. Particulars: water-insoluble solvent other than alicyclic or aliphatic hydrocarbons; in words.
The nature of data set [2]: Solubility in cyclohexane (Table 2). It is filed as physicochemical. Particulars: for Solubility: cyclohexane.

For `Cc1cc(CCC(=O)OCC(C)(C)C2OCC3(CO2)COC(C(C)(C)COC(=O)CCc2cc(C)c(O)c(C(C)(C)C)c2)OC3)cc(C(C)(C)C)c1O` (stereo not drawn) [α.eta.-Crystal, 3,9-bis{2-[3-(3-tert-butyl-4-hydroxy-5-methylphenyl)propionyloxy]-1,1-dimethylethyl}-2,4,8,10-tetraoxaspiro[5.5]undecane], the “solubility of the αβ-crystals in water-insoluble solvent” value in data set [1] was “so high that the δ-crystals containing substantially no αβ-crystals can be obtained even at room temperature”. In addition, the Solubility in data set [2] (20 °C) is recorded as 0.2 g/100 g cyclohexane; in data set [2] (30 °C) it was 0.5 g/100 g cyclohexane; in data set [2] (40 °C), 1.4 g/100 g cyclohexane; in data set [2] (50 °C) it was 4.1 g/100 g cyclohexane; in data set [2] (55 °C), 8.5 g/100 g cyclohexane; in data set [2] (60 °C), more than 60 g/100 g cyclohexane.

Consider `Cc1cc(CCC(=O)OCC(C)(C)C2OCC3(CO2)COC(C(C)(C)COC(=O)CCc2cc(C)c(O)c(C(C)(C)C)c2)OC3)cc(C(C)(C)C)c1O` (centres unmarked) [δ-Crystal, 3,9-bis{2-[3-(3-tert-butyl-4-hydroxy-5-methylphenyl)propionyloxy]-1,1-dimethylethyl}-2,4,8,10-tetraoxaspiro[5.5]undecane], for which the Solubility is given as 0.06 g/100 g cyclohexane in data set [2] (20 °C); 0.1 g/100 g cyclohexane in data set [2] (30 °C); 0.2 g/100 g cyclohexane in data set [2] (40 °C); 0.5 g/100 g cyclohexane in data set [2] (50 °C); 1.1 g/100 g cyclohexane in data set [2] (55 °C); 2.1 g/100 g cyclohexane in data set [2] (60 °C). In data set [2] (in words, refers to Table 2), the “solubility compared with αβ-crystals” value is reported as “lower solubility than that of the αβ-crystals”.
